# Where two headings read alike, the source gives them in different places.
# Columns and labels:
# [1] = molecular target: VIM-1 (Pseudomonas aeruginosa, UniProt A0A0F7KYQ8)
# [2] = tested on: SPM-1; settings: data from ref. 2; cited from earlier work
# [3] = molecular target: T1, IMP-1 (Serratia marcescens, UniProt P52699); settings: data from ref. 2; cited from earlier work
# [4] = molecular target: GIM-1 (Pseudomonas aeruginosa, UniProt Q704V1); settings: data from ref. 2; cited from earlier work
# GIM-1, sequence (Q704V1 entry or part of it): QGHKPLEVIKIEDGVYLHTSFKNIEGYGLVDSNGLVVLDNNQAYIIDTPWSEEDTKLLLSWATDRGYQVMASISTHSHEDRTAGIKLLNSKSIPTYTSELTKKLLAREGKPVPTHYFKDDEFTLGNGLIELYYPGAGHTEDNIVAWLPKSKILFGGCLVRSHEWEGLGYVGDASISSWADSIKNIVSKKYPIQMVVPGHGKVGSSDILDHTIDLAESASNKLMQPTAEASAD
# [5] = molecular target: Bla2 (Bacillus anthracis, UniProt Q93T40); test: biochemical; type: biochemical
# Bla2, sequence (Q93T40 1-256): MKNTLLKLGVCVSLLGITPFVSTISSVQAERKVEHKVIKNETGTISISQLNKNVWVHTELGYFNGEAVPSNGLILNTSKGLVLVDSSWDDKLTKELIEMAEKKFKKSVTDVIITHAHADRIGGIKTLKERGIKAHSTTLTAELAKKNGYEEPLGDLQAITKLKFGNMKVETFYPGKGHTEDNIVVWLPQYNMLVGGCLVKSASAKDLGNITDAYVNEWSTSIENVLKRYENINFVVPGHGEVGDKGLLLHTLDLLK
# [6] = molecular target: human matrix metalloproteinase 8 (MMP-8) (Homo sapiens, UniProt P22894); test: Human MMP-8 inhibition, commercial assay kit (Enzo); settings: at concentrations up to 100 μM
# human matrix metalloproteinase 8 (MMP-8), sequence (P22894 101-467): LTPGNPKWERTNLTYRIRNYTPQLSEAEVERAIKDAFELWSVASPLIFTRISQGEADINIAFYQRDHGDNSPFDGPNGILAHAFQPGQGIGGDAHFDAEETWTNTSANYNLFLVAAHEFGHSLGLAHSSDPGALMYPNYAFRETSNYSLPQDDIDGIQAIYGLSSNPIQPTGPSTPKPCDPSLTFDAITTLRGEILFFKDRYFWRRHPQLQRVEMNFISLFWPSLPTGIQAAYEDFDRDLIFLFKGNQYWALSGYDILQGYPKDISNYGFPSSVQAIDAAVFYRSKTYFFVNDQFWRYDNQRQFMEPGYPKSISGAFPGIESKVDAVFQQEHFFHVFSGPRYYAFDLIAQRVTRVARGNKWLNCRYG
# [7] = molecular target: T1, IMP-1; test: biochemical; design: species or system Pseudomonas aeruginosa
# [8] = molecular target: subclass B2 metallo-β-lactamase CphA (Aeromonas hydrophila, UniProt P26918); settings: cited from earlier work
# subclass B2 metallo-β-lactamase CphA, sequence (P26918 28-254): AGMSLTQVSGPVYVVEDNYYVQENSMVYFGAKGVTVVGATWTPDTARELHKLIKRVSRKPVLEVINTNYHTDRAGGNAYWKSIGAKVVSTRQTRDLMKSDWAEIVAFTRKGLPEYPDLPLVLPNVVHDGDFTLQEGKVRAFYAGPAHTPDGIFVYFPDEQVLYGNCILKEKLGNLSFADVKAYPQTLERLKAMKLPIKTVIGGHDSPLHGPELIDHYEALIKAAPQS
# [9] = molecular target: T1, IMP-1; settings: cited from earlier work
# [10] = tested on: other MBLs; settings: cited from earlier work
# [11] = tested on: O=C(Cc1cccs1)N[C@@H]1C(=O)N2C(C(=O)O)=C(/C=C/c3ccc([N+](=O)[O-])cc3[N+](=O)[O-])CS[C@H]12; test: purified protein, by the assay type; settings: pH 7.5
# [12] = molecular target: T1, IMP-1; settings: ratio of Km values
# [13] = data from ref. 2; read-out: Km for VIM-1; cited from earlier work
# [14] = read-out: Km for VIM-1; data from ref. 2; cited from earlier work
# T1 sequence (P52699 19-246 limits assumed): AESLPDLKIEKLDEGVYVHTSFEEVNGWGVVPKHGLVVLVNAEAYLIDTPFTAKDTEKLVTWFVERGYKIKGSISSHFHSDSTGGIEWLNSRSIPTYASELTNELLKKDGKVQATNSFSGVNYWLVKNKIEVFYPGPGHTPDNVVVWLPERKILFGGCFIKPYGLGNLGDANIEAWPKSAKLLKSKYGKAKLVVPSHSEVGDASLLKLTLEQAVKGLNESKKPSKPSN
compound,measurement,setting,value
CC1(C)S[C@@H]2[C@H](NC(=O)[C@H](N)c3ccccc3)C(=O)N2[C@H]1C(=O)O [Ampicillin],Km,[1]; [13],917 µM
same,Km,[2],72 µM
same,Km,[3],200 µM
same,Km,[4],20 µM
"C[C@H](CS)C(=O)N1CCC[C@H]1C(=O)O [Captopril, captopril]",IC50,[5],25 µM
CC(=O)OCC1=C(C(=O)O)N2C(=O)[C@@H](NC(=O)Cc3cccs3)[C@H]2SC1 [Cephalothin],Km,[1]; [14],53 µM
same,Km,[2],4 µM
same,Km,[3],21 µM
same,Km,[4],16 µM
"O=C(O)[C@@H]1CSC(c2ccccc2)=N1 [Compound 1, (R)-4,5-dihydro-2-phenylthiazole-4-carboxylic acid]",inhibition of human MMP-8,[6],did not exhibit inhibition
"O=C(O)c1csc(Cc2ccccc2)n1 [Compound 2, 2-benzylthiazole-4-carboxylic acid]",inhibition of human MMP-8,[6],did not exhibit inhibition
"O=C(NCc1ccccc1)c1cccc(O)n1 [Compound 3, N-benzyl-6-hydroxypyridine-2-carboxamide]",IC50,[7],13.9 µM
same,Ki,[7],3 to 19 µM
"O=c1ccc(-c2ccccc2)cn1O [Compound 4, 1-hydroxy-5-phenylpyridin-2-one]",IC50,[7],12 µM
same,Ki,[7],3 to 19 µM
"O=C(O)C1CS[C@H](c2ccccc2O)N1 (stereo partly drawn) [Compound 160, (R)-2-(2-hydroxyphenyl)thiazolidine-4-carboxylic acid]",IC50,[7]; read-out: IMP-1 IC50,29.2 µM
same,IC50,[5]; read-out: Bla2 IC50,16 µM
"CC(C)(C)OC(=O)Nc1cccc(C2=NC(C(=O)O)CS2)c1 (stereo not drawn) [Compound 361, 2-[3-(tert-butoxycarbonylamino)phenyl]-4,5-dihydrothiazole-4-carboxylic acid]",IC50,[5]; read-out: Bla2 IC50,70 µM
"Nc1cccc(C2=NC(C(=O)O)CS2)c1 (stereo not drawn) [Compound 362, 2-(3-aminophenyl)-4,5-dihydrothiazole-4-carboxylic acid]",IC50,[7]; read-out: IMP-1 IC50,100 µM
same,IC50,[5]; read-out: Bla2 IC50,20 µM
same,Ki,[5]; read-out: Bla2 KI,15 µM
"CC1(C)SC(c2ccc(Br)cc2)=N[C@H]1C(=O)O [Compound 365, (S)-2-(4-bromophenyl)-4,5-dihydro-5,5-dimethylthiazole-4-carboxylic acid]",IC50,[7]; read-out: IMP-1 IC50,150 µM
"CC(=O)Nc1cccc(C2=N[C@@H](C(=O)O)C(C)(C)S2)c1 [Compound 368, (S)-2-(3-acetamidophenyl)-4,5-dihydro-5,5-dimethyolthiazole-4-carboxylic acid]",IC50,[7]; read-out: IMP-1 IC50,60 µM
"COC(=O)[C@@H]1CSC(CNC(=O)OC(C)(C)C)=N1 [Compound 369, tert-butyl ((R)-4-(methoxycarbonyl)-4,5-dihydrothiazol-2-yl)methylcarbamate]",IC50,[5]; read-out: Bla2 IC50,110 µM
"C[C@@H](O)[C@H]1C(=O)N2C(C(=O)O)=C(SCCN=CN)C[C@H]12 [Imipenem, imipenem]",Km,[1]; [14],1.5 µM
same,Km,[4],27 µM
C[C@@H](O)[C@H]1C(=O)N2C(C(=O)O)=C(S[C@@H]3CN[C@H](C(=O)N(C)C)C3)[C@H](C)[C@H]12 [Meropenem],Km,[1]; [13],48 µM
same,Km,[2],281 µM
same,Km,[4],2.7 µM
"O=C(Cc1cccs1)N[C@@H]1C(=O)N2C(C(=O)O)=C(/C=C/c3ccc([N+](=O)[O-])cc3[N+](=O)[O-])CS[C@H]12 [Nitrocefin, nitrocefin]",Km,[1]; [14],17 µM
same,Km,[2],4 µM
same,Km,[3],27 µM
same,Km,[4],5.8 µM
"O=C(O)c1cccc(C(=O)O)n1 [pyridine-2,6-dicarboxylic acid]",inhibition of CphA activity,[8],potently inhibit
same,inhibitory effect on IMP-1,[9],potently inhibit
O=C(O)c1ccccn1 [pyridine-2-carboxylic acid],activity against other MBLs,[10],little or no activity
same,Ki,[8]; read-out: Ki against CphA,5.7 µM
same,inhibitory effect on IMP-1,[9],only a very weak inhibitory effect
IMP-1 (Serratia marcescens),Km,[11],25 µM
penicillin G,Km,[1]; [13],841 µM
same,Km,[2],38 µM
same,Km,[3],520 µM
same,Km,[4],46 µM
same,fold less tight binding to IMP-1 than imipenem,[12],~13 ×
same,fold less tight binding to IMP-1 than nitrocefin,[12],~20 ×
